From ChEMBL document CHEMBL1697781, “Assessment of the health effects of chemicals in humans: II. Construction of an adverse effects database for QSAR modeling” (Curr Drug Discov Technol, 2004) come the findings set out here.

Common to all, as to details: human
The test system of data set [1] is Hepatotoxicity. Briefly: FDA HLAED, serum glutamic pyruvic transaminase (SGPT) increase.
Data set [2] concerns Hepatotoxicity. Briefly: FDA HLAED, serum glutamic oxaloacetic transaminase (SGOT) increase.
In data set [3] the test system is Hepatotoxicity. Briefly: FDA HLAED, lactate dehydrogenase (LDH) increase.
Data set [4] concerns Hepatotoxicity. Briefly: FDA HLAED, gamma-glutamyl transferase (GGT) increase.
Data set [5] deals with Hepatotoxicity. Briefly: FDA HLAED, alkaline phosphatase increase.
Data set [6] has as its system Hepatotoxicity. Briefly: FDA HLAED, liver enzyme composite activity.
Wherever GGT Increase - Index Value is given: reference of the scale not given here.
Wherever LDH Increase - Index Value is given: reference of the scale not given here.

On to `COc1ccc2cc(CCC(C)=O)ccc2c1` [NABUMETONE], for which, in the data set on Hepatotoxicity [1], the “SGPT Increase - Activity Score” value is reported as “Inactive”, the “SGPT Increase - Index Value” is reported as 0.6 and the “SGPT Increase - Number of Reports” value is “>= 4”. In addition, in the data set on Hepatotoxicity [2], the “SGOT Increase - Activity Score” value is given as “Inactive”, the “SGOT Increase - Index Value” amounted to 0.6 and the “SGOT Increase - Number of Reports” value is given as “>= 4”. Also, in the data set with Hepatotoxicity [3], the “LDH Increase - Activity Score” value is given as “Inactive”, the “LDH Increase - Index Value” is on record as 0.3 and the “LDH Increase - Number of Reports” value is on record as “>= 4”. For the same molecule, in the data set on Hepatotoxicity [4], the “GGT Increase - Activity Score” value is on record as “Inactive”, the “GGT Increase - Index Value” is listed as 0.5 and the “GGT Increase - Number of Reports” value is “>= 4”. In the data set on Hepatotoxicity [5], the “Alkaline Phosphatase Increase - Activity Score” value is “Inactive”, the “Alkaline Phosphatase Increase - Index Value” was found to be 0.8 and the “Alkaline Phosphatase Increase - Number of Reports” value is given as “>= 4”. Also, in the data set with Hepatotoxicity [6], the “Composite Activity - Active” value turned out to be 0, the “Composite Activity - Marginal” value is 0 and the “Composite Activity - Score” value is listed as “Inactive”.

On to `C[C@]12CC[C@H]3[C@@H](CCC4=CC(=O)CC[C@@]43C)[C@@H]1CC[C@@H]2O` [TESTOSTERONE], for which, in the data set on Hepatotoxicity [1], the “SGPT Increase - Activity Score” value is “Inactive”, the “SGPT Increase - Index Value” worked out at 7.2 and the “SGPT Increase - Number of Reports” value was under 4. Moreover, in the data set on Hepatotoxicity [2], the “SGOT Increase - Activity Score” value is recorded as “Inactive”, the “SGOT Increase - Index Value” is 4.8 and the “SGOT Increase - Number of Reports” value is under 4. In the data set on Hepatotoxicity [3], the “LDH Increase - Activity Score” value is listed as “Inactive”, the “LDH Increase - Index Value” stood at 2.4 and the “LDH Increase - Number of Reports” value was under 4. For the same molecule, in the data set with Hepatotoxicity [4], the “GGT Increase - Activity Score” value is “Inactive”, the “GGT Increase - Index Value” is reported as 4.8 and the “GGT Increase - Number of Reports” value is under 4. In addition, in the data set with Hepatotoxicity [5], the “Alkaline Phosphatase Increase - Activity Score” value is recorded as “Inactive”, the “Alkaline Phosphatase Increase - Index Value” turned out to be 0 and the “Alkaline Phosphatase Increase - Number of Reports” value was under 4. Moreover, in the data set on Hepatotoxicity [6], the “Composite Activity - Active” value is listed as 0, the “Composite Activity - Marginal” value was 0 and the “Composite Activity - Score” value is on record as “Inactive”.

`C[C@H]1[C@H](NC(=O)/C(=N\OC(C)(C)C(=O)O)c2csc(N)n2)C(=O)N1S(=O)(=O)O` [AZTREONAM]: in the data set with Hepatotoxicity [1], the “SGPT Increase - Activity Score” value is “Marginally Active”, the “SGPT Increase - Index Value” is given as 3.8 and the “SGPT Increase - Number of Reports” value is “>= 4”. Besides, in the data set on Hepatotoxicity [2], the “SGOT Increase - Activity Score” value is “Marginally Active”, the “SGOT Increase - Index Value” worked out at 3.2 and the “SGOT Increase - Number of Reports” value is on record as “>= 4”. For the same molecule, in the data set on Hepatotoxicity [3], the “LDH Increase - Activity Score” value is on record as “Inactive”, the “LDH Increase - Index Value” was 0.6 and the “LDH Increase - Number of Reports” value is reported as under 4. In the data set with Hepatotoxicity [4], the “GGT Increase - Activity Score” value is recorded as “Inactive”, the “GGT Increase - Index Value” came out at 0.6 and the “GGT Increase - Number of Reports” value is listed as under 4. Further, in the data set with Hepatotoxicity [5], the “Alkaline Phosphatase Increase - Activity Score” value is recorded as “Active”, the “Alkaline Phosphatase Increase - Index Value” was 6.9 and the “Alkaline Phosphatase Increase - Number of Reports” value was “>= 4”. Also, in the data set with Hepatotoxicity [6], the “Composite Activity - Active” value was found to be 1, the “Composite Activity - Marginal” value came to 2 and the “Composite Activity - Score” value was “Inactive”.

Regarding `O=C1CN=C(c2ccccc2)c2cc(Cl)ccc2N1CC(F)(F)F` [HALAZEPAM], in the data set on Hepatotoxicity [1], the “SGPT Increase - Activity Score” value is “Inactive”, the “SGPT Increase - Index Value” was 0 and the “SGPT Increase - Number of Reports” value is under 4. In the data set with Hepatotoxicity [2], the “SGOT Increase - Activity Score” value is “Inactive”, the “SGOT Increase - Index Value” is given as 0 and the “SGOT Increase - Number of Reports” value is under 4. In the data set with Hepatotoxicity [3], the “LDH Increase - Activity Score” value is recorded as “Inactive”, the “LDH Increase - Index Value” is recorded as 0 and the “LDH Increase - Number of Reports” value is reported as under 4. In the data set with Hepatotoxicity [4], the “GGT Increase - Activity Score” value was “Inactive”, the “GGT Increase - Index Value” worked out at 0 and the “GGT Increase - Number of Reports” value was under 4. In the data set with Hepatotoxicity [5], the “Alkaline Phosphatase Increase - Activity Score” value is listed as “Inactive”, the “Alkaline Phosphatase Increase - Index Value” amounted to 0 and the “Alkaline Phosphatase Increase - Number of Reports” value is listed as under 4. Further, in the data set with Hepatotoxicity [6], the “Composite Activity - Active” value was 0, the “Composite Activity - Marginal” value was 0 and the “Composite Activity - Score” value is listed as “Inactive”.

In the case of `C[C@]12CC[C@@H]3c4ccc(O)cc4CC[C@H]3[C@@H]1CC[C@@H]2O` [ESTRADIOL], in the data set with Hepatotoxicity [1], the “SGPT Increase - Activity Score” value is “Inactive”, the “SGPT Increase - Index Value” turned out to be 2.1 and the “SGPT Increase - Number of Reports” value was “>= 4”. In the data set with Hepatotoxicity [2], the “SGOT Increase - Activity Score” value is “Inactive”, the “SGOT Increase - Index Value” was 2.8 and the “SGOT Increase - Number of Reports” value is on record as “>= 4”. Besides, in the data set on Hepatotoxicity [3], the “LDH Increase - Activity Score” value was “Inactive”, the “LDH Increase - Index Value” came out at 1.2 and the “LDH Increase - Number of Reports” value was “>= 4”. Moreover, in the data set with Hepatotoxicity [4], the “GGT Increase - Activity Score” value was “Inactive”, the “GGT Increase - Index Value” is 0.3 and the “GGT Increase - Number of Reports” value is reported as under 4. Further, in the data set with Hepatotoxicity [5], the “Alkaline Phosphatase Increase - Activity Score” value was “Inactive”, the “Alkaline Phosphatase Increase - Index Value” is on record as 1.5 and the “Alkaline Phosphatase Increase - Number of Reports” value is on record as “>= 4”. Besides, in the data set with Hepatotoxicity [6], the “Composite Activity - Active” value is reported as 0, the “Composite Activity - Marginal” value is listed as 0 and the “Composite Activity - Score” value is recorded as “Inactive”.

On to `O=C1c2c(O)ccc(O)c2C(=O)c2c(NCCNCCO)ccc(NCCNCCO)c21` [MITOXANTRONE], for which, in the data set on Hepatotoxicity [1], the “SGPT Increase - Activity Score” value is “Inactive”, the “SGPT Increase - Index Value” is listed as 4.5 and the “SGPT Increase - Number of Reports” value is reported as under 4. In the data set with Hepatotoxicity [2], the “SGOT Increase - Activity Score” value is given as “Active”, the “SGOT Increase - Index Value” came out at 13.5 and the “SGOT Increase - Number of Reports” value is under 4. Besides, in the data set on Hepatotoxicity [3], the “LDH Increase - Activity Score” value is reported as “Inactive”, the “LDH Increase - Index Value” is listed as 0 and the “LDH Increase - Number of Reports” value is under 4. Also, in the data set on Hepatotoxicity [4], the “GGT Increase - Activity Score” value was “Inactive”, the “GGT Increase - Index Value” worked out at 0 and the “GGT Increase - Number of Reports” value was under 4. For the same molecule, in the data set on Hepatotoxicity [5], the “Alkaline Phosphatase Increase - Activity Score” value is reported as “Inactive”, the “Alkaline Phosphatase Increase - Index Value” is given as 4.5 and the “Alkaline Phosphatase Increase - Number of Reports” value was under 4. Moreover, in the data set on Hepatotoxicity [6], the “Composite Activity - Active” value came out at 1, the “Composite Activity - Marginal” value came out at 0 and the “Composite Activity - Score” value is recorded as “Inactive”.

In the case of `CN1CCN2c3ncccc3Cc3ccccc3C2C1` (configuration not stated) [MIRTAZAPINE], in the data set on Hepatotoxicity [1], the “SGPT Increase - Activity Score” value is on record as “Active”, the “SGPT Increase - Index Value” is on record as 6.4 and the “SGPT Increase - Number of Reports” value is listed as “>= 4”. For the same molecule, in the data set on Hepatotoxicity [2], the “SGOT Increase - Activity Score” value is listed as “Marginally Active”, the “SGOT Increase - Index Value” stood at 3.6 and the “SGOT Increase - Number of Reports” value was “>= 4”. Moreover, in the data set with Hepatotoxicity [3], the “LDH Increase - Activity Score” value was “Inactive”, the “LDH Increase - Index Value” came to 0.9 and the “LDH Increase - Number of Reports” value is under 4. For the same molecule, in the data set with Hepatotoxicity [4], the “GGT Increase - Activity Score” value is on record as “Marginally Active”, the “GGT Increase - Index Value” is recorded as 3.6 and the “GGT Increase - Number of Reports” value is under 4. Besides, in the data set on Hepatotoxicity [5], the “Alkaline Phosphatase Increase - Activity Score” value is on record as “Inactive”, the “Alkaline Phosphatase Increase - Index Value” came to 0.9 and the “Alkaline Phosphatase Increase - Number of Reports” value is on record as under 4. Moreover, in the data set on Hepatotoxicity [6], the “Composite Activity - Active” value was found to be 1, the “Composite Activity - Marginal” value is 2 and the “Composite Activity - Score” value is recorded as “Inactive”.

In the case of `FC(F)OC(Cl)C(F)(F)F` (configuration not stated) [ISOFLURANE], in the data set on Hepatotoxicity [1], the “SGPT Increase - Activity Score” value is on record as “Inactive”, the “SGPT Increase - Index Value” was determined as 0.4 and the “SGPT Increase - Number of Reports” value was under 4. Also, in the data set with Hepatotoxicity [2], the “SGOT Increase - Activity Score” value is on record as “Inactive”, the “SGOT Increase - Index Value” worked out at 1 and the “SGOT Increase - Number of Reports” value was “>= 4”. Moreover, in the data set with Hepatotoxicity [3], the “LDH Increase - Activity Score” value was “Inactive”, the “LDH Increase - Index Value” came to 0 and the “LDH Increase - Number of Reports” value is recorded as under 4. In the data set on Hepatotoxicity [4], the “GGT Increase - Activity Score” value is listed as “Inactive”, the “GGT Increase - Index Value” was determined as 0 and the “GGT Increase - Number of Reports” value is on record as under 4. Moreover, in the data set with Hepatotoxicity [5], the “Alkaline Phosphatase Increase - Activity Score” value is listed as “Inactive”, the “Alkaline Phosphatase Increase - Index Value” is recorded as 0.6 and the “Alkaline Phosphatase Increase - Number of Reports” value is under 4. In the data set on Hepatotoxicity [6], the “Composite Activity - Active” value is given as 0, the “Composite Activity - Marginal” value is 0 and the “Composite Activity - Score” value was “Inactive”.

As for `C[C@@H](O)[C@H]1C(=O)N2C(C(=O)O)=C(S[C@@H]3CN[C@H](C(=O)N(C)C)C3)[C@H](C)[C@H]12` [MEROPENEM], in the data set with Hepatotoxicity [1], the “SGPT Increase - Activity Score” value was “Active”, the “SGPT Increase - Index Value” was 50.8 and the “SGPT Increase - Number of Reports” value is reported as under 4. Besides, in the data set on Hepatotoxicity [2], the “SGOT Increase - Activity Score” value is listed as “Active”, the “SGOT Increase - Index Value” came out at 50.8 and the “SGOT Increase - Number of Reports” value was under 4. In the data set with Hepatotoxicity [3], the “LDH Increase - Activity Score” value was “Marginally Active”, the “LDH Increase - Index Value” was 33.8 and the “LDH Increase - Number of Reports” value was under 4. For the same molecule, in the data set on Hepatotoxicity [4], the “GGT Increase - Activity Score” value is “Inactive”, the “GGT Increase - Index Value” amounted to 0 and the “GGT Increase - Number of Reports” value is on record as under 4. Further, in the data set with Hepatotoxicity [5], the “Alkaline Phosphatase Increase - Activity Score” value is “Inactive”, the “Alkaline Phosphatase Increase - Index Value” came to 0 and the “Alkaline Phosphatase Increase - Number of Reports” value is recorded as under 4. Further, in the data set with Hepatotoxicity [6], the “Composite Activity - Active” value worked out at 2, the “Composite Activity - Marginal” value was 1 and the “Composite Activity - Score” value was “Active”.
